≈ marks a conversion by molar mass, not a printed value. Where two headings read alike, the source gives them in different places.
Experiments:
[1] = ASSAY (IV) determination of solubility; format: physicochemical
How it was run: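 Samples of polypeptide, prepared from a water stock at […] and diluted 1:1 into 100 mM buffers spanning pH 3.0 to 8.0, stood 18 hours at room temperature. Polypeptide concentration was then determined by UPLC following centrifugation.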

[2] = molecular target: T1, rat calcitonin receptor (Rattus norvegicus, UniProt P32214); experiment: ASSAY (VIII) binding to the rat calcitonin receptor; details: Table 7, read-out: rCTR bind IC50
T1 construct: expressed in transfected cells; host or cells: BHK tk'ts 13 (transient, FuGENE 6), membranes
T1 sequence (P32214 25-479 isoform P32214-2 limits assumed): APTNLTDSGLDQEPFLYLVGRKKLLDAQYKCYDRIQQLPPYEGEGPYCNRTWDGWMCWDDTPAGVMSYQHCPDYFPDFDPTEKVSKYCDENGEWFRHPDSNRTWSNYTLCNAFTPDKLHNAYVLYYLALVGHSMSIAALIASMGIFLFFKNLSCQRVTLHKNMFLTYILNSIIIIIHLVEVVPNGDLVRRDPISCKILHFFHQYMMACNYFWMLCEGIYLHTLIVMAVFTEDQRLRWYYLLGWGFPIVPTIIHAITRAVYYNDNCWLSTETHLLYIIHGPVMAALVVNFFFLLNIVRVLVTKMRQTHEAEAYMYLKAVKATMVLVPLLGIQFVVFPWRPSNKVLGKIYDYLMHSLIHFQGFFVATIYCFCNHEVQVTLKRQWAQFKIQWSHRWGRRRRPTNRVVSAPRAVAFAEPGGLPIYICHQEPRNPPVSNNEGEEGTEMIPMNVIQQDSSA
How it was run: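 Cell membranes for binding came from BHK tk′ts 13 cells harvested approximately 48 hours after transient transfection with the rat receptor.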

[3] = ASSAY (III) ThT fibrillation assay for physical stability; format: physicochemical
How it was run: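 Physical stability scored by ThT fluorescence (444 nm excitation, 485 nm emission) tracked every 20 min during 37 °C incubation with 960 rpm shaking, ThT at 1 μM final. Values are replicate means with SD at chosen times; HPLC against pramlintide standard gives initial and post-assay soluble concentrations.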

- solubility at 18 h ([1]; bistrispropane buffer, pH 6.5, read-out: Solubility pH 6.5 Concentration): ≥ 200 µM
- solubility at 18 h ([1]; bistrispropane buffer, pH 7.5, read-out: Solubility pH 7.5 Concentration): ≥ 200 µM
- solubility at 18 h ([1]; bistrispropane buffer, pH 6.0, read-out: Solubility pH 6.0 Concentration): ≥ 200 µM
- solubility at 18 h ([1]; bistrispropane buffer, pH 7.0, read-out: Solubility pH 7.0 Concentration): ≥ 200 µM
- solubility at 18 h ([1]; bistrispropane buffer, pH 8.0, read-out: Solubility pH 8.0 Concentration): 176 µM (≈ 824 µg/mL)
- solubility at 18 h ([1]; glycylglycine buffer, pH 3.0, read-out: Solubility pH 3.0 Concentration): ≥ 200 µM
- solubility at 18 h ([1]; glycylglycine buffer, pH 4.0, read-out: Solubility pH 4.0 Concentration): ≥ 200 µM
- solubility at 18 h ([1]; glycylglycine buffer, pH 5.0, read-out: Solubility pH 5.0 Concentration): ≥ 200 µM
- IC50 [2]: 0.0241 µM
- ThT pH 4.0 lag time (h) [3]: 4 h
Compound: CC[C@H](C)[C@H](NC(=O)[C@H](C)NC(=O)CNC(=O)[C@H](Cc1ccccc1)NC(=O)[C@H](CC(N)=O)NC(=O)[C@@H]1CCCN1C(=O)[C@H](CO)NC(=O)[C@H](CO)NC(=O)[C@H](Cc1c[nH]cn1)NC(=O)[C@H](CCCNC(=N)N)NC(=O)[C@H](CC(C)C)NC(=O)[C@H](Cc1ccccc1)NC(=O)[C@H](CC(N)=O)NC(=O)[C@H](C)NC(=O)[C@H](CC(C)C)NC(=O)[C@H](CCCNC(=N)N)NC(=O)[C@H](CCC(N)=O)NC(=O)[C@@H](NC(=O)[C@H](C)NC(=O)[C@@H]1CSSC[C@H](NC(=O)[C@@H](N)CCCCNC(=O)COCCOCCNC(=O)COCCOCCNC(=O)CC[C@H](NC(=O)CCCCCCCCCCCCCCCCCCC(=O)O)C(=O)O)C(=O)N[C@@H](CC(N)=O)C(=O)N[C@@H]([C@@H](C)O)C(=O)N[C@@H](C)C(=O)N[C@@H]([C@@H](C)O)C(=O)N1)[C@@H](C)O)C(=O)N1CCC[C@H]1C(=O)N[C@@H](CO)C(=O)N[C@@H](CO)C(=O)N[C@H](C(=O)N[C@@H](CC(N)=O)C(=O)N[C@H](C(=O)NCC(=O)N1CCC[C@H]1C(=O)N[C@@H](CC(N)=O)C(=O)N[C@H](C(=O)N[C@@H](Cc1ccc(O)cc1)C(N)=O)[C@@H](C)O)C(C)C)[C@@H](C)O [Example 98]

— patent US9023789B2, “Amylin analogs and pharmaceutical compositions thereof” (Novo Nordisk A/S, priority 2012, dated 2015)
